Experimental data from ChEMBL document CHEMBL1201862, “PubChem BioAssay data set” (2004).
Active and inactive are the calls of the source.

Legend:
BJ [1] = test: cells; assay type: functional, cell-based; conditions: Homo sapiens
BJ [2] = test: cytotoxicity toward BJ-TERT fibroblasts, dose response, cell-based, RAS-independent, luminescence (AID 1933); assay type: functional; conditions: Homo sapiens
[3] = Fluorescence-based cell-based high throughput dose response assay for inhibitors of the interaction of nucleotide-binding oligomerization domain containing 2 (NOD2) and the receptor-interacting serine-threonine kinase 2 (RIPK2).; assay type: functional; conditions: Homo sapiens
INS1 = test: beta cell apoptosis inhibitors, cytokine rescue, dose response, luminescence, retest (AID 449756); assay type: functional, cell-based; conditions: Rattus norvegicus;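 further: cell death triggered by IL-1 beta plus TNF-alpha plus IFN-gamma mixture; protective hits raise ATP signal compared with cytokine alone wells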
[4] = cytotoxicity toward DRD oncogenic fibroblasts, dose response, cell-based, non-viral oncogenic, luminescence (AID 1934); assay type: functional; conditions: Homo sapiens
[5] = microbe, parasite or virus in culture; assay type: functional; conditions: Mycobacterium tuberculosis
BJ [6] = test: cytotoxicity toward Ras-transformed BJeLR fibroblasts, dose response, cell-based, alamar blue fluorescence, cherrypicked samples (AID 2631); assay type: functional; conditions: Homo sapiens;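 further: confirmatory dose-response assay in RAS-dependent BJ fibroblasts engineered with TERT, LT and ST, with cytotoxicity read by fluorescence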
BJ [7] = test: cytotoxicity toward BJ-TERT-LT-ST fibroblasts, dose response, cell-based, RAS-independent, luminescence (AID 1935); assay type: functional; conditions: Homo sapiens;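 further: BJ fibroblasts immortalized with TERT plus LT and ST oncogenes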
Paired box protein Pax-8 = Paired box protein Pax-8 (Homo sapiens, UniProt Q06710); test: inhibitors of PAX8-driven TPO luciferase reporter, dose response, RMG-I cells, cherry-pick (AID 687027); assay type: functional, cell-based;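 further: luciferase reporter driven by Pax8 target thyroperoxidase promoter measured by SteadyGlo luminescence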
Protein S100-A4 = Protein S100-A4 (Homo sapiens, UniProt P26447); test: S100A4-myosin IIA binding inhibitor potency, dose response, biochemical, fluorescence polarization, cherry-picked hits (AID 687001); assay type: functional
[8] = biological target: Heat shock protein HSP 90-alpha (Homo sapiens, UniProt P07900); assay type: functional, organism-based
[9] = intracellular Trypanosoma cruzi inhibitors in host cells – cell-based, plate reader, cherry-pick samples, set 3, dose response (AID 651818); assay type: functional;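 further: compounds incubated with infected cells for about four days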
[10] = NIH/3T3 fibroblast cytotoxicity, dose response, cytotoxicity control for T. cruzi growth inhibitor project, cell-based, cherry-pick samples, set 2 (AID 651817); assay type: functional; conditions: NIH3T3
Large T antigen = Large T antigen (Simian virus 40, UniProt P03070); assay type: functional, Betapolyomavirus macacae;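 further: Confirmatory-stage PubChem screen for compounds that inhibit SV40 T antigen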
[11] = biological target: T1, Sentrin-specific protease 1 (Homo sapiens, UniProt Q9P0U3); test: Dose response confirmation of small molecule inhibitors of the catalytic domain of the SUMO protease, SENP1 in a FRET assay.; assay type: functional; conditions: read-out: IC50_Mean
[12] = biological target: T1, Sentrin-specific protease 1; test: potency of human SENP1 inhibitors, dose response, biochemical, kinetic FRET (AID 651697); assay type: functional; conditions: read-out: IC50_Mean
Beta Lactamase [13] = biological target: T2, Beta Lactamase (Pseudomonas aeruginosa, UniProt Q932Y6); test: VIM-2 metallo-beta-lactamase inhibitor potency, dose response, biochemical, epi-absorbance readout, selective inhibitors (AID 1919)
Beta-lactamase [14] = biological target: T3, Beta-lactamase (Pseudomonas aeruginosa, UniProt Q79MP6); test: IMP-1 metallo-beta-lactamase inhibitors, dose response, selectivity assay for VIM-2 inhibitor project, biochemical, epi-absorbance (AID 1920)
Beta-lactamase [15] = biological target: Beta-lactamase (Salmonella choleraesuis (strain SC-B67), UniProt Q5J463); test: Epi-absorbance-based counterscreen for selective VIM-2 inhibitors: dose response biochemical high throughput screening assay to identify inhibitors of TEM-1 serine-beta-lactamase.
Beta Lactamase [16] = biological target: T2, Beta Lactamase; test: VIM-2 inhibitor FRET-based artefact check, dose response, artefact control for selective VIM-2 inhibitor project, biochemical, FRET readout, CCF2 substrate (AID 1926)
Beta-lactamase [17] = biological target: T3, Beta-lactamase; test: […] counterscreen for selective VIM-2 inhibitors: dose response biochemical high throughput screening assay to identify inhibitors of IMP-1 metallo-beta-lactamase.
Genome polyprotein [18] = biological target: T4, Genome polyprotein (Hepatitis C virus, UniProt Q2Q167); test: Late stage assay provider counterscreen results for the probe development effort to identify inhibitors of Hepatitis C Virus (HCV) core protein dimerization: Luminescence-based biochemical AlphaScreen assay to identify inhibitors of HCV core dimerization.; assay type: functional, Hepacivirus hominis
T4 sequence (Q2Q167 whole entry): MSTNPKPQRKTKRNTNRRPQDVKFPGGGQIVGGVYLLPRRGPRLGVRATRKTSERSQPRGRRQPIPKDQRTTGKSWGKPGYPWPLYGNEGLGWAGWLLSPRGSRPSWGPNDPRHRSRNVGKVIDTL

Genome polyprotein [19] = biological target: T4, Genome polyprotein; test: HCV core protein dimerization inhibitors, dose response, biochemical, TR-FRET (AID 2159); set-up: species or system Hepacivirus hominis;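 further: blocks dimerization of HCV core protein measured by TR-FRET between tagged core106 pairs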

T3 sequence (Q79MP6 whole entry): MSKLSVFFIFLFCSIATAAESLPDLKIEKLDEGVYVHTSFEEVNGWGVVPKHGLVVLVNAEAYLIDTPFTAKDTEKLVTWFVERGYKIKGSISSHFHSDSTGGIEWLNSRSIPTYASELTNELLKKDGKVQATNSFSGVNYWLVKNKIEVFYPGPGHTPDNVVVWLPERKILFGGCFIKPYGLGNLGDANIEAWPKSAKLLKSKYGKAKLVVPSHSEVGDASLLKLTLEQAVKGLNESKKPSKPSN
T1 sequence (Q9P0U3 whole entry, the tested form may be a part): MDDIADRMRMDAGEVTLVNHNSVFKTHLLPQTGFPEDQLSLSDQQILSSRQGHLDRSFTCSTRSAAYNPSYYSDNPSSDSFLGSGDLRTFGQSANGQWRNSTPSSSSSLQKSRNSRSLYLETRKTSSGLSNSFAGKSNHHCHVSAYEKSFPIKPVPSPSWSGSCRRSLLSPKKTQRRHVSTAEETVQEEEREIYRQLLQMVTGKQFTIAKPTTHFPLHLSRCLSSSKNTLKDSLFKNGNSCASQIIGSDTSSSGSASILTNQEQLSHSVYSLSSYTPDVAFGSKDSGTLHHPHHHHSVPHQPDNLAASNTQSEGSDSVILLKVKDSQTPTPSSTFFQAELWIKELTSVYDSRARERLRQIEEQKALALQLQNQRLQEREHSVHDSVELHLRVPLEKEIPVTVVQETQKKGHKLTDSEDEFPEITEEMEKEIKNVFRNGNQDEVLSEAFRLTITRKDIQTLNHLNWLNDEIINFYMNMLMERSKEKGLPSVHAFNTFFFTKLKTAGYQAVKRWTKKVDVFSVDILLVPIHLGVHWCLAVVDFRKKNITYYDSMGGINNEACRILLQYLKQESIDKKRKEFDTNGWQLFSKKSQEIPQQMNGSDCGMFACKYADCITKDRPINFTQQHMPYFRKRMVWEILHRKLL
T2 sequence (Q932Y6 whole entry): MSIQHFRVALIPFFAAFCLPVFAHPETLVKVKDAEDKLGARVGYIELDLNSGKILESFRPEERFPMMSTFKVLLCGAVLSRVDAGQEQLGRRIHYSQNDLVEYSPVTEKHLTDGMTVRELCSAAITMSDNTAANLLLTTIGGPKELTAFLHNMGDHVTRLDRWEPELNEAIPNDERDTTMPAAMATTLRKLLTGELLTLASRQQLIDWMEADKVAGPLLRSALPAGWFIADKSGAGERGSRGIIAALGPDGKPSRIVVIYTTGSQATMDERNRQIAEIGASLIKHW
Sequence of Large T antigen (P03070 whole entry, the tested form may be a part): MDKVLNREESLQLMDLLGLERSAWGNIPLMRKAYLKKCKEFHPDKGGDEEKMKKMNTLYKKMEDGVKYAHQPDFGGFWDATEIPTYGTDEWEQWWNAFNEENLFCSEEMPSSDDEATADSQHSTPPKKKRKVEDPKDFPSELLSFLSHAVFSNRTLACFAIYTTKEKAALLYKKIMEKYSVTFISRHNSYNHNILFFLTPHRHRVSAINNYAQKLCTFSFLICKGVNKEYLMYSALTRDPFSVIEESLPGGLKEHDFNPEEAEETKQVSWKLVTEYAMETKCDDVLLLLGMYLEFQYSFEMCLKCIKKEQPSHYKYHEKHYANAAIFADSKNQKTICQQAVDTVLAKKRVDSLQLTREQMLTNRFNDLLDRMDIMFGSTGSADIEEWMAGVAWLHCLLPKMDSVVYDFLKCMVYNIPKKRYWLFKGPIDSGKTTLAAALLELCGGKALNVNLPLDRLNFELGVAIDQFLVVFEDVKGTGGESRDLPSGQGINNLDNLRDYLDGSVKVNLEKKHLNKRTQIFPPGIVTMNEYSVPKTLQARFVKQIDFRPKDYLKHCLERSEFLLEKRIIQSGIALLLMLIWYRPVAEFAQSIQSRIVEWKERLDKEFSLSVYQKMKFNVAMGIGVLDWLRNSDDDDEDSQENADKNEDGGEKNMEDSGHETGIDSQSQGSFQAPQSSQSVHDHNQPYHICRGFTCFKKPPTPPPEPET
Sequence of Paired box protein Pax-8 (Q06710 whole entry): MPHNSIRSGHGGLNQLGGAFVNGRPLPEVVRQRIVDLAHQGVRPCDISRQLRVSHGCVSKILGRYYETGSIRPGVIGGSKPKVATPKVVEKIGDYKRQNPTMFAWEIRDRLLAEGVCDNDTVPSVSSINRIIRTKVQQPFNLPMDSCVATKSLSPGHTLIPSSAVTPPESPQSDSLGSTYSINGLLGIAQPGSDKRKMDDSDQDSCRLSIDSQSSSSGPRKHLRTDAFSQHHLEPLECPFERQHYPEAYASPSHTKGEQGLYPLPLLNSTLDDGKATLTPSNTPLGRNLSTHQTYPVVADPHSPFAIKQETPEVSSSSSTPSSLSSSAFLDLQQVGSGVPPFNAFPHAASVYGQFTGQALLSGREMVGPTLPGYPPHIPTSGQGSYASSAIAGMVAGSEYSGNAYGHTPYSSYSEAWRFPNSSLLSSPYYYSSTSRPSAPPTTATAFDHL
Sequence of Protein S100-A4 (P26447 whole entry): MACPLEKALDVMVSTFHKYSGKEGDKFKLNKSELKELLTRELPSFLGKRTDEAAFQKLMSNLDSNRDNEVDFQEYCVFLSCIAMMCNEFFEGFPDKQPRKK
Sequence of Beta-lactamase (Salmonella choleraesuis (strain SC-B67), UniProt Q5J463) (Q5J463 whole entry): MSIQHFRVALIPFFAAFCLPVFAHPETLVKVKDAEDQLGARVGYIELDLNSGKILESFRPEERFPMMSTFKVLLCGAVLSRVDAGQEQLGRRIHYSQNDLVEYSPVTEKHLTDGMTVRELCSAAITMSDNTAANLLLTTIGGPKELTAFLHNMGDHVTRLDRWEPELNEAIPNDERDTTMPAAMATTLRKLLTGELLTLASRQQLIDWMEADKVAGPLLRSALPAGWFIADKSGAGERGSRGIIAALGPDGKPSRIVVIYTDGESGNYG

With `CCOc1cc(/C=C2\COc3ccccc3C2=O)cc(Br)c1OCC(=O)N(C)C` the EC50 (BJ [1]) was 8.64 µM (active), the EC50 (BJ [2]) was 5.54 µM (inconclusive) and the IC50 [3] was 6.43 µM (active). The AC50 (INS1) was 7.22 µM (active), the EC50 [4] was 5.72 µM (active) and the CC50 [5] was 15.2 µM (active). For the same compound, the EC50 (BJ [6]) was 2.12 µM (active) and the EC50 (BJ [7]) was 16.4 µM (active).

For `COc1cccc2c1C(=O)c1c(O)c3c(c(O)c1C2=O)CC(O)(C(=O)CO)CC3OC1CC(N(C)C)C(O)C(C)O1` (stereo not drawn), the AC50 (Paired box protein Pax-8) was 0.833 µM (active), the AC50 (Protein S100-A4) was 0.257 µM (active) and the AC50 [8] was 0.296 µM (active).

In the case of `Cc1ccc(S(=O)(=O)N(C)C[C@H]2Oc3ccc(NS(=O)(=O)c4ccc(Cl)cc4)cc3CC(=O)N([C@H](C)CO)C[C@H]2C)cc1`, the AC50 [9] is reported as 2.35 µM (active) and the AC50 [10] is reported as 39 µM (inactive).

In the case of `COc1cc(SC#N)ccc1/N=C/c1c(C)[nH]n(-c2ccc(C)cc2C)c1=O`, the IC50 (Large T antigen) is reported as 7.19 µM (active), the IC50 [11] is reported as 15 µM (active) and the IC50 [12] is reported as 24.8 µM (inactive).

In the case of `O=[N+]([O-])c1ccccc1/C=N/n1c(S)nnc1C(F)(F)F`, the IC50 (Beta Lactamase [13]) is reported as 9.33 µM (active), the IC50 (Beta-lactamase [14]) is reported as > 59.6 µM (inactive) and the IC50 (Beta-lactamase [15]) is reported as > 59.6 µM (inactive). For the same compound, the IC50 (Beta Lactamase [16]) was 3.12 µM (active) and the IC50 (Beta-lactamase [17]) was > 59.6 µM (inactive).

With `CC1=C(/C=C/C(C)=C/C=C/C(C)=C/C=C/C=C(C)/C=C/C=C(C)/C=C/C2=C(C)CCCC2(C)C)C(C)(C)CCC1` [BETA CAROTENE] the IC50 (Genome polyprotein [18]) was 34.8 µM (inactive) and the IC50 (Genome polyprotein [19]) was 29.7 µM (not active).
